Test results as given in US10155817B2, “Dual-target antibody targeting VEGFR-2 and DLL4 and pharmaceutical composition including same” (PharmAbcine Inc., priority 2012, dated 2018).

Legend:
[1] = system: Notch-1; experiment: Promoter activity by Notch-1, luciferase reporter in LS174T cells co-cultured with 293-hDLL4; format: cell-based, human; settings: antibody 20 mg/ml, DAPT 5 mM, co-culture with 293-hDLL4 24 hours, luminescence, versus untreated antibody group, FIG. 9
Method: 1×10^5 LS174T cells (colon cancer cell line; ATCC, CL-188™) were incubated in RPMI medium containing 10% of fetal calf serum for 24 hours, and 0.8 μg of Notch Cignal reporter DNA contained in Cignal Reporter Assay Kit (#336841 CCS-014L, QIAGEN) and 2 μl of lipofectamine (#11668-500; Invitrogen) were mixed with 100 μl of opti-MEM media and allowed to stand for 20 minutes, and then 400 μl of opti-MEM was added for transfection to incubate cells for 6 hours. After 6 hours, the medium was replaced with an MEM medium containing 10% fetal calf serum, and incubated overnight. Next day, Tanibirumab and PMC-201 (each of 20 mg/ml) were mixed and pre-treated in 1×10^5 of 293-hDLL4 cells for 1 hour, then co-cultured with LS174T cells transfected with Notch Cignal reporter DNA for 24 hours. DAPT (5 mM) was not pre-treated and 293-hDLL4 cell was mixed with the transfected LS174T cells, and co-cultured for 24 hours.
After co-culture for 24 hours, cells were lyzed by using a lysis buffer contained in Dual-Luciferase Reporter Assay System (Cat. # E1910; Promega), and a substrate and ATP were mixed with each other, and then luminescence amount was measured by using Luminometer.

[2] = target: T1, human DLL4 (Homo sapiens, UniProt Q9NR61); experiment: Biacore affinity analysis to human DLL4; format: binding; settings: BIACORE 3000, CM5 chip, sample immobilized, DLL4 4.9-312.5 nM as antigen, FIG. 5
T1 construct: expressed in transfected cells; host or cells: 293 cells stably transfected with pcDNA-hDLL4 (293-DLL4 pool; clone 293-hDLL4)
Method: In order to calculate Kd (dissociation constant) of PMC-201 to human DLL4, BIACORE® 3000 (GE Healthcare) was used, and CM5 chip was used. The dissociation constant is similar to Km value, and is used as an affinity index of an enzyme to a substrate in an enzyme-substrate complex. The affinity between the enzyme and the substrate is increased as the dissociation constant is decreased.
The sample was immobilized by using 400 mM EDC (N-ethyl-N′-(dimethylaminopropyl) Carbodiimide), 100 mM NHS (N-Hydroxysuccinimide), and 1M ethanolamine hydrochloride (pH 8.5) that are an Amine Coupling Kit (GE Healthcare), and 20 mM sodium hydroxide as a generation buffer, and 1×PBS as an immobilization buffer were diluted, and then the analysis sample was 1:40 diluted in 10 mM acetate (pH 5.0) (GE Healthcare). The sample was immobilized at 4000RU (Response Unit). A buffer for measuring adsorption of the analysis sample was a HBS-EP buffer (GE Healthcare). DLL4s having measurement concentrations of 4.9, 9.7, 19.5, 39.1, 78.1, 156.3, 312.5 nM as an antigen were serial-diluted so as to have a final volume of 200 μl by using an HBS-EP buffer. Five concentrations of seven concentrations were selected and fitted. […] Affinity of the analysis sample was measured under conditions in which an analysis flow rate was 30 μl/min, a binding section was 60 seconds, and a dissociation was 300 seconds.

T1 sequence (Q9NR61 27-685): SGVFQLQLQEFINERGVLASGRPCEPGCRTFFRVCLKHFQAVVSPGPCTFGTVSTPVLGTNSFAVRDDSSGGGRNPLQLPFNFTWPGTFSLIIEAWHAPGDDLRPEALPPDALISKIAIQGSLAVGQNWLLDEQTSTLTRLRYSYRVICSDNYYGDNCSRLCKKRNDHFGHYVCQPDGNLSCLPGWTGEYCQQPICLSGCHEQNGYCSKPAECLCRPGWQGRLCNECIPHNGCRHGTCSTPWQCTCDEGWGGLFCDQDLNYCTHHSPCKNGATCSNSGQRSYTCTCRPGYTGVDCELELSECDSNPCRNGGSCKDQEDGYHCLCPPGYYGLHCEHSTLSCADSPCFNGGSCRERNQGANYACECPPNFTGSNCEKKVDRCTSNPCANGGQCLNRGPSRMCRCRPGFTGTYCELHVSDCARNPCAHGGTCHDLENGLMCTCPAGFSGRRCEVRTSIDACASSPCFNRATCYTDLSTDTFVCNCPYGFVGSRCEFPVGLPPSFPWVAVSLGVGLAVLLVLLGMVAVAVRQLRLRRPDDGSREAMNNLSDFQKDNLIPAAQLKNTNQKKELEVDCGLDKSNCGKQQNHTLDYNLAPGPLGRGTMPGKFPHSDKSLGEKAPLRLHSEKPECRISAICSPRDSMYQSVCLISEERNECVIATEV

affinity (Kd, dissociation constant) to human DLL4 [2]	Molecule	promoter activation of NICD exhibited by Notch-1 activation of LS174T cells [1]
	C[C@H](NC(=O)Cc1cc(F)cc(F)c1)C(=O)N[C@H](C(=O)OC(C)(C)C)c1ccccc1 [DAPT, N—[N-(3,5-Difluorophenacetyl)-L-alanyl]-S-phenylglycine t-butyl ester]	decreased
affinity was confirmed	Notch-1 Fc: Notch-1 Fc protein used as comparator for binding to hDLL4 (protein, left off: a dimerising Fc or GST) ARGPRCSQPGETCLNGGKCEAANGTEACVCGGAFVGPRCQDPNPCLSTPCKNAGTCHVVDRRGVADYACSCALGFSGPLCLTPLDNACLTNPCRNGGTCDLLTLTEYKCRCPPGWSGKSCQQADPCASNPCANGGQCLPFEASYICHCPPSFHGPTCRQDVNECGQKPGLCRHGGTCHNEVGSYRCVCRATHTGPNCERPYVPCSPSPCQNGGTCRPTGDVTHECACLPGFTGQNCEENIDDCPGNNCKNGGACVDGVNTYNCRCPPEWTGQYCTEDVDECQLMPNACQNGGTCHNTHGGYNCVCVNGWTGEDCSENIDDCASAACFHGATCHDRVASFYCECPHGRTGLLCHLNDACISNPCNEGSNCDTNPVNGKAICTCPSGYTGPACSQDVDECSLGANPCEHAGKCINTLGSFECQCLQGYTGPRCEIDVNECVSNPCQNDATCLDQIGEFQCICMPGYEGVHCEVNTDECASSPCLHNGRCLDKINEFQCECPTGFTGHLCQ	
